Laboratory results published in ChEMBL document CHEMBL1147878, “Synthesis and in vitro antimicrobial activity of new 2-[p-substituted-benzyl]-5-[substituted-carbonylamino]benzoxazoles” (2007).
In brackets after ≈: the same amount, converted by molar mass.

Assays:
Type in all cases: functional
[1] = system: Nakaseomyces glabratus; assay: Antifungal activity against Candida glabrata after 48 hrs by serial dilution method
[2] = system: Staphylococcus aureus; assay: Antibacterial activity against Staphylococcus aureus ATCC 25923 after 24 hrs by serial dilution method
[3] = system: Escherichia coli; assay: Antibacterial activity against Escherichia coli ATCC 23556 after 24 hrs by serial dilution method
[4] = system: Candida albicans; assay: Antifungal activity against Candida albicans after 48 hrs by serial dilution method
[5] = system: Pseudomonas aeruginosa; assay: Antibacterial activity against Pseudomonas aeruginosa ATCC 10145 after 24 hrs by serial dilution method
[6] = system: Bacillus subtilis; assay: Antibacterial activity against Bacillus subtilis ATCC 6633 after 24 hrs by serial dilution method
[7] = system: Pichia kudriavzevii; assay: Antifungal activity against Candida krusei ATCC 6258 after 48 hrs by serial dilution method; details: ATCC 6258, 48 h

| Compound | MIC [1] [µg/mL] | MIC ([2]; ATCC 25923, 24 h) [µg/mL] | MIC ([3]; ATCC 23556, 24 h) [µg/mL] | MIC [4] [µg/mL] | MIC ([5]; ATCC 10145, 24 h) [µg/mL] | MIC ([6]; ATCC 6633, 24 h) [µg/mL] | MIC [7] [µg/mL] | MIC [2] [µg/mL] | MIC [3] [µg/mL] | MIC [5] [µg/mL] | MIC [6] [µg/mL] |
| --- | --- | --- | --- | --- | --- | --- | --- | --- | --- | --- | --- |
| Cc1ccc(C(=O)Nc2ccc3oc(Cc4ccccc4)nc3c2)cc1C | 50 (≈ 140 µM) | 50 (≈ 140 µM) | 50 (≈ 140 µM) | 25 (≈ 70.1 µM) | 25 (≈ 70.1 µM) | 50 (≈ 140 µM) | 50 (≈ 140 µM) |  |  |  |  |
| Cc1ccc(C)c(C(=O)Nc2ccc3oc(Cc4ccccc4)nc3c2)c1 | 25 (≈ 70.1 µM) | 50 (≈ 140 µM) | 50 (≈ 140 µM) | 25 (≈ 70.1 µM) | 50 (≈ 140 µM) | 25 (≈ 70.1 µM) | 25 (≈ 70.1 µM) |  |  |  |  |
| Cc1ccc(CC(=O)Nc2ccc3oc(Cc4ccc(Cl)cc4)nc3c2)cc1 | 12.5 (≈ 32 µM) | 100 (≈ 256 µM) | 50 (≈ 128 µM) | 12.5 (≈ 32 µM) | 25 (≈ 64 µM) | 25 (≈ 64 µM) | 12.5 (≈ 32 µM) |  |  |  |  |
| O=C(Cc1ccc(Br)cc1)Nc1ccc2oc(Cc3ccccc3)nc2c1 | 3.12 (≈ 7.41 µM) | 25 (≈ 59.3 µM) | 25 (≈ 59.3 µM) | 25 (≈ 59.3 µM) | 25 (≈ 59.3 µM) | 25 (≈ 59.3 µM) | 12.5 (≈ 29.7 µM) |  |  |  |  |
| CC(C)(C)c1ccc(C(=O)Nc2ccc3oc(Cc4ccc(Cl)cc4)nc3c2)cc1 | 50 (≈ 119 µM) | 25 (≈ 59.7 µM) | 50 (≈ 119 µM) | 50 (≈ 119 µM) | 50 (≈ 119 µM) | 50 (≈ 119 µM) | 50 (≈ 119 µM) |  |  |  |  |
| CN[C@@H]1[C@H](O[C@H]2[C@H](O[C@H]3[C@H](O)[C@@H](O)[C@H](N=C(N)N)[C@@H](O)[C@@H]3N=C(N)N)O[C@@H](C)[C@]2(O)C=O)O[C@@H](CO)[C@H](O)[C@H]1O (stereo in doubt) [STREPTOMYCIN] | 13 (≈ 22.4 µM) | 3.12 (≈ 5.36 µM) | 1.56 (≈ 2.68 µM) |  | 100 (≈ 172 µM) | 50 (≈ 86 µM) |  |  |  |  |  |
| O=C(Cc1ccc([N+](=O)[O-])cc1)Nc1ccc2oc(Cc3ccccc3)nc2c1 | 25 (≈ 64.5 µM) | 50 (≈ 129 µM) | 50 (≈ 129 µM) | 25 (≈ 64.5 µM) | 25 (≈ 64.5 µM) | 50 (≈ 129 µM) | 25 (≈ 64.5 µM) |  |  |  |  |
| Cc1ccc(CC(=O)Nc2ccc3oc(Cc4ccccc4)nc3c2)cc1 | 12.5 (≈ 35.1 µM) | 25 (≈ 70.1 µM) | 25 (≈ 70.1 µM) | 25 (≈ 70.1 µM) | 25 (≈ 70.1 µM) | 25 (≈ 70.1 µM) | 6.25 (≈ 17.5 µM) |  |  |  |  |
| O=C(CSc1ccccc1)Nc1ccc2oc(Cc3ccc(Cl)cc3)nc2c1 | 50 (≈ 122 µM) | 100 (≈ 245 µM) | 100 (≈ 245 µM) | 50 (≈ 122 µM) | 100 (≈ 245 µM) | 100 (≈ 245 µM) | 25 (≈ 61.1 µM) |  |  |  |  |
| O=C(Nc1ccc2oc(Cc3ccc(Cl)cc3)nc2c1)c1ccccc1 | 25 (≈ 68.9 µM) | 200 (≈ 551 µM) | 100 (≈ 276 µM) | 50 (≈ 138 µM) | 100 (≈ 276 µM) | 50 (≈ 138 µM) | 25 (≈ 68.9 µM) |  |  |  |  |
| O=C(CSc1ccccc1)Nc1ccc2oc(Cc3ccccc3)nc2c1 | 25 (≈ 66.8 µM) | 100 (≈ 267 µM) | 50 (≈ 134 µM) | 25 (≈ 66.8 µM) | 25 (≈ 66.8 µM) | 50 (≈ 134 µM) | 25 (≈ 66.8 µM) |  |  |  |  |
| Cc1ccc(C(=O)Nc2ccc3oc(Cc4ccc(Cl)cc4)nc3c2)cc1C | 50 (≈ 128 µM) | 12.5 (≈ 32 µM) | 50 (≈ 128 µM) | 100 (≈ 256 µM) | 50 (≈ 128 µM) | 25 (≈ 64 µM) | 12.5 (≈ 32 µM) |  |  |  |  |
| CC1(C)S[C@@H]2[C@H](NC(=O)[C@H](N)c3ccc(O)cc3)C(=O)N2[C@H]1C(=O)O [AMOXICILLIN] |  | 1.56 (≈ 4.27 µM) | 3.12 (≈ 8.54 µM) |  | > 200 | 1.56 (≈ 4.27 µM) |  |  |  |  |  |
| Clc1ccc(COC(Cn2ccnc2)c2ccc(Cl)cc2Cl)c(Cl)c1 (stereo unspecified) [MICONAZOLE] | 3.12 (≈ 7.5 µM) |  |  | 3.12 (≈ 7.5 µM) |  |  | 1.56 (≈ 3.75 µM) |  |  |  |  |
| O=C(Cc1ccccc1)Nc1ccc2oc(Cc3ccccc3)nc2c1 | 25 (≈ 73 µM) | 25 (≈ 73 µM) | 25 (≈ 73 µM) | 12.5 (≈ 36.5 µM) | 50 (≈ 146 µM) | 25 (≈ 73 µM) | 12.5 (≈ 36.5 µM) |  |  |  |  |
| O=C(Nc1ccc2oc(Cc3ccc(Cl)cc3)nc2c1)c1ccc(Br)cc1 | 100 (≈ 226 µM) | 50 (≈ 113 µM) | 50 (≈ 113 µM) | 50 (≈ 113 µM) | 50 (≈ 113 µM) | 50 (≈ 113 µM) | 100 (≈ 226 µM) |  |  |  |  |
| O=C(Cc1ccc(Br)cc1)Nc1ccc2oc(Cc3ccc(Cl)cc3)nc2c1 | 50 (≈ 110 µM) | 50 (≈ 110 µM) | 50 (≈ 110 µM) | 12.5 (≈ 27.4 µM) | 50 (≈ 110 µM) | 25 (≈ 54.9 µM) | 25 (≈ 54.9 µM) |  |  |  |  |
| CCc1ccc(C(=O)Nc2ccc3oc(Cc4ccc(Cl)cc4)nc3c2)cc1 | 25 (≈ 64 µM) | 50 (≈ 128 µM) | 50 (≈ 128 µM) | 25 (≈ 64 µM) | 50 (≈ 128 µM) | 50 (≈ 128 µM) | 25 (≈ 64 µM) |  |  |  |  |
| O=C(O)c1cn(C2CC2)c2cc(N3CCNCC3)c(F)cc2c1=O [CIPROFLOXACIN] |  | 3.12 (≈ 9.42 µM) |  |  | 0.78 (≈ 2.35 µM) | 1.56 (≈ 4.71 µM) |  |  |  |  |  |
| GENTAMICIN |  |  |  |  |  |  |  | 3.12 | 12.5 | 12.5 | 1.56 |
| Cc1ccc(C)c(C(=O)Nc2ccc3oc(Cc4ccc(Cl)cc4)nc3c2)c1 | 25 (≈ 64 µM) | 50 (≈ 128 µM) | 12.5 (≈ 32 µM) | 6.25 (≈ 16 µM) | 50 (≈ 128 µM) | 12.5 (≈ 32 µM) | 12.5 (≈ 32 µM) |  |  |  |  |
